Results taken from ChEMBL document CHEMBL1158634, “Towards Gram-positive antivirulence drugs: new inhibitors of Streptococcus agalactiae Stk1” (Bioorg Med Chem Lett, 2010).

Assay: Inhibition of Streptococcus agalactiae Stk1 preincubated for 30 mins

SMILES | IC50 [µM]
Cn1cnc2c(NCCCO)nc(N3CCOCC3)nc21 | 66
Cn1cnc2c(NCCCO)nc(-c3cccc(NC(=O)Nc4ccc5c(c4)OCO5)c3)nc21 | 0.28
CN(CCCO)c1nc(-c2cccc(NC(=O)Nc3cccc(Cl)c3)c2)nc2c1ncn2C | > 300
Cn1cnc2c(NCCCO)nc(NCc3ccccc3)nc21 | 48
COCCCNc1nc(-c2cccc(NC(=O)Nc3cccc(Cl)c3)c2)nc2c1ncn2C | 0.28
Cn1cnc2c(NCCCN)nc(-c3cccc(NC(=O)Nc4cccc(Cl)c4)c3)nc21 | 0.48
Cn1cnc2c(NCCCO)nc(-c3cccc(NC(=O)Nc4cc(Cl)cc(Cl)c4)c3)nc21 | 0.16
OCCCNc1nc(Cl)nc2[nH]cnc12 | > 300
CCCNc1nc(-c2cccc(NC(=O)Nc3cccc(Cl)c3)c2)nc2c1ncn2C | 0.3
Cn1cnc2c(N)nc(-c3cccc(NC(=O)Nc4cccc(Cl)c4)c3)nc21 | 1.3
Cn1cnc2c(NCCCO)nc(-c3cccc(NS(C)(=O)=O)c3)nc21 | 15
Cn1cnc2c(NCCCO)nc(-c3cccc(C(=O)O)c3)nc21 | 39
Cn1cnc2c(NCCCO)nc(Cl)nc21 | 66
CCn1cnc2c(NCCCO)nc(Cl)nc21 | 175
CC(C)n1cnc2c(NCCCO)nc(Cl)nc21 | > 300
Cn1cnc2c(NCCCO)nc(-c3ccccc3)nc21 | 12
Cn1cnc2c(NCCCO)nc(-c3cccnc3)nc21 | 34
Cn1cnc2c(NCCCO)nc(N3CCNCC3)nc21 | 110
Cn1cnc2c(NCCCO)nc(-c3cccc(Cl)c3)nc21 | 3
Cn1cnc2c(NCCCO)nc(-c3cccc(N)c3)nc21 | 13
Cn1cnc2c(NCCCO)nc(Nc3ccccc3)nc21 | 26
Cn1cnc2c(NCCCO)nc(-c3cccc([N+](=O)[O-])c3)nc21 | 3
Cn1cnc2c(NCCCO)nc(-c3cccc(C(F)(F)F)c3)nc21 | 4
Cn1cnc2c(NCCCO)nc(-c3cccc(C(=O)NCCc4cccnc4)c3)nc21 | 38
Cn1cnc2c(NCCCO)nc(-c3cccc(C(=O)N4CCC(c5ccccc5)CC4)c3)nc21 | 174

Second part, the compound after the results:

IC50 [µM] | SMILES
7.5 | Cn1cnc2c(NCCCO)nc(-c3cccc(NC(=O)NCc4ccccc4)c3)nc21
0.2 | Cc1cccc(NC(=O)Nc2cccc(-c3nc(NCCCO)c4ncn(C)c4n3)c2)c1
18 | CCCNC(=O)Nc1cccc(-c2nc(NCCCO)c3ncn(C)c3n2)c1
0.32 | Cn1cnc2c(NCCCO)nc(-c3cccc(NC(=O)Nc4cccc(Cl)c4)c3)nc21
0.49 | Cn1cnc2c(NCCCO)nc(-c3cccc(NC(=O)Nc4cccc(C#N)c4)c3)nc21
1 | Cn1cnc2c(NCCCO)nc(-c3cccc(NC(=O)Nc4ccccc4)c3)nc21
0.64 | Cn1cnc2c(NCCCO)nc(-c3cccc(NC(=O)Nc4cccc(S(C)(=O)=O)c4)c3)nc21
0.63 | COc1ccc(NC(=O)Nc2cccc(-c3nc(NCCCO)c4ncn(C)c4n3)c2)cc1
0.73 | Cn1cnc2c(NCCCO)nc(-c3cccc(NC(=O)Nc4cccc(N)c4)c3)nc21
0.32 | Cn1cnc2c(NCCO)nc(-c3cccc(NC(=O)Nc4cccc(Cl)c4)c3)nc21
2 | Cn1cnc2c(NCCCO)nc(-c3cccc(NC(=O)Nc4ccsc4)c3)nc21
0.93 | CC(=O)Nc1cccc(NC(=O)Nc2cccc(-c3nc(NCCCO)c4ncn(C)c4n3)c2)c1
0.96 | Cn1cnc2c(NCCCO)nc(-c3cccc(NC(=O)Nc4cccnc4)c3)nc21
16 | Cn1cnc2c(NCCCO)nc(-c3cccc(NC(=O)Nc4ccccc4Cl)c3)nc21
59 | Cn1cnc2c(NCCCO)nc(-c3cccc(NC(=O)Nc4c(Cl)cccc4Cl)c3)nc21
18 | CC(=O)Nc1cccc(-c2nc(NCCCO)c3ncn(C)c3n2)c1
1.6 | Cn1cnc2c(NCCCO)nc(-c3cccc(NC(=O)Nc4ccc(Cl)cc4)c3)nc21
12 | Cn1cnc2c(NCCCO)nc(-c3cccc(NC(N)=O)c3)nc21
4 | Cn1cnc2c(NCCCO)nc(-c3cccc(-c4ccccc4)c3)nc21
22 | Cn1cnc2c(NCCCO)nc(-c3cccc(NS(=O)(=O)Cc4ccccc4)c3)nc21
> 300 | Cn1cnc2c(NCCCO)nc(-c3cccc(C(=O)NCCCc4ccccc4)c3)nc21
